Data taken from patent US8097440B1, “Engineered microorganisms capable of producing target compounds under anaerobic conditions” (Gevo, Inc., priority 2008, dated 2012).
Numbering of substitutions follows the chain as printed.

Legend:
[1] = target: T1, E. coli KARI Ec_IlvC variant Ec_IlvC^B8A71S-his6 (Q110V, S78D, A71S), SEQ ID NO: 29 (Escherichia coli, UniProt P05793, A71S/Q110V/S78D); assay: KARI cuvette assay, purified Ec_IlvC^B8A71S-his6; assay type: biochemical
T1 sequence (P05793 with tags, fused parts or gaps A71S/S78D/Q110V): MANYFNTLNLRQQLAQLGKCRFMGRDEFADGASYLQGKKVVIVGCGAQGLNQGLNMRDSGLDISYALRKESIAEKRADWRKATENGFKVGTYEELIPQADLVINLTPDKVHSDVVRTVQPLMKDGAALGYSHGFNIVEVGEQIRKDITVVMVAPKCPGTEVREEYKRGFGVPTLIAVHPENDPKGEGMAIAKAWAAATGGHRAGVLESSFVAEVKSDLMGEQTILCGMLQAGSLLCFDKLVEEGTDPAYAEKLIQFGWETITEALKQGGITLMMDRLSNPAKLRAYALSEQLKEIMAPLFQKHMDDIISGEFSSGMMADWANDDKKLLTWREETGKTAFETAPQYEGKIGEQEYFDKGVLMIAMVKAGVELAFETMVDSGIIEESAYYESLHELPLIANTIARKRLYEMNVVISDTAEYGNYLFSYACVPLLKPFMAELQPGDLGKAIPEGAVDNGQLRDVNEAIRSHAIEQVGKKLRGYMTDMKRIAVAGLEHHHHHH
Description: (§1) KARI cuvette assay: KARI activity was assayed kinetically by monitoring the decrease in NAD(P)H concentration by measuring the absorbance at 340 nm. A reaction buffer was prepared containing 250 mM potassium phosphate pH 7, 1 mM DTT and 10 mM MgCl2. Cell pellets were resuspended (0.25 g wet weight/mL buffer) in 250 mM potassium phosphate (KPi) buffer containing 1 mM DTT and 10 mM MgCl2. The resuspended cells were lysed by sonication for 1 min with a 50% duty cycle and pelleted at 11000×g and 4° C. for 15 min. A reaction mixture consisting of 910 μl reaction buffer, 50 μl acetolactate, and 20 μl lysate was prepared in a cuvette. The reaction was initiated by addition of 20 μL of 10 mM NAD(P)H. A substrate free control was conducted using reaction buffer without the addition of acetolactate.
Purification of KARI: Cell pellets used for purification were resuspended in purification buffer A (20 mM Tris, 20 mM imidazol, 100 mM NaCl, 10 mM MgCl2, pH 7.4). KARI was purified by IMAC (Immobilized metal affinity chromatography) over a 1 ml Histrap High Performance (histrap HP) column pre-charged with Nickel (GE Healthcare) using an Akta FPLC system (GE Healthcare). […]

[2] = target: T2, E. coli KARI Ec_IlvC variant Ec_IlvC^2H10-his6 (A71S, R76D, S78D, Q110A), SEQ ID NO: 31 (Escherichia coli, UniProt P05793, A71S/Q110A/R76D/S78D); assay: KARI assay, purified Ec_IlvC^2H10-his6; assay type: biochemical; conditions: acetolactate as substrate
T2 construct: T37 values cited for the gene on pGV1976
T2 sequence (P05793 with tags, fused parts or gaps A71S/R76D/S78D/Q110A): T1 sequence (P05793 with tags, fused parts or gaps A71S/S78D/Q110V) with R76D, V110A
Description: as §1, with “The reaction was initiated by addition of 20 μL of 10 mM NAD(P)H. A substrate free control was conducted using reaction buffer without the addition of acetolactate.” left out
Only 20% of the enzymes of the recombination library were active on NADH. After screening 1,000 clones using the NADH depletion assay at 340 nm, 26 KARI variants were selected for a rescreen by the high-throughput assay described in Example 14 and eight thereof were expressed in 25 ml LBamp medium in shake flasks according to the protocol for cell growth and protein expression in shake flasks as described in Example 14, purified according to the protocol for purification of KARI enzymes as described in Example 14, and NAD(P)H depletion at 340 nm was measured again. […] The KM values of variants Ec_llvC^2H10-his6 and Ec_llvC^6E6-his6 were measured and the catalytic efficiencies were calculated.

NC(=O)C1=CN([C@@H]2O[C@H](COP(=O)(O)OP(=O)(O)OC[C@H]3O[C@@H](n4cnc5c(N)ncnc54)[C@H](O)[C@@H]3O)[C@@H](O)[C@H]2O)C=CC1 [NADH, nicotinamide adenine dinucleotide]
kcat/KM ([1]; purified, acetolactate as substrate): 38330 M⁻¹ s⁻¹ | (kcat/KM with NADH)/(kcat/KM of Ec_IlvC^his6 with NADPH) ([1]; relative to Ec_IlvC^his6 with NADPH): 44% | kcat/KM [2]: 60,322 M^−1 * s^−1
